# Assays:
# Type in all cases: functional
# SK-MEL-28 = assay: Growth inhibition of human SK-MEL-28 cells
# NCI-H522 = assay: Growth inhibition of human NCI-H522 cells
# SK-MEL-2 = assay: Growth inhibition of human SK-MEL-2 cells
# SW-620 = assay: Growth inhibition of human SW620 cells
# Malme-3M = assay: Growth inhibition of human MALME-3M cells
# HCT-116 = assay: Growth inhibition of human HCT116 cells
# NCI-H226 = assay: Growth inhibition of human NCI-H226 cells
# SNB-19 = assay: Growth inhibition of human SNB19 cells
# [1] = Growth inhibition of human SF295 cells; settings: SF-295
# COLO 205 = assay: Growth inhibition of human COLO205 cells
# [2] = Growth inhibition of human NCI60 cells assessed as cell growth; parameters: concentration or dose not given beside the values
# [3] = Growth inhibition of human UACC62 cells
# NCI-H23 = assay: Growth inhibition of human NCI-H23 cells
# [4] = Growth inhibition of human HCT15 cells
# NCI-H460 = assay: Growth inhibition of human NCI-H460 cells
# [5] = Growth inhibition of human SF539 cells
# SK-MEL-5 = assay: Growth inhibition of human SK-MEL-5 cells
# [6] = Growth inhibition of human HCC2998 cells
# [7] = Growth inhibition of human HOP92 cells
# KM12 = assay: Growth inhibition of human KM12 cells
# [8] = Growth inhibition of human LOXIMVI cells; settings: LOX IMVI
# U-251 = assay: Growth inhibition of human U251 cells
# [9] = Growth inhibition of human UACC257 cells
# MDA-MB-435 = assay: Growth inhibition of human MDA-MB-435 cells
# A549 = assay: Growth inhibition of human A549 cells
# HT-29 = assay: Growth inhibition of human HT-29 cells
# HOP-62 = assay: Growth inhibition of human HOP62 cells
# NCI-H322M = assay: Growth inhibition of human NCI-H322M cells
# [10] = Growth inhibition of human EKVX cells
# SNB-75 = assay: Growth inhibition of human SNB75 cells
# SF-268 = assay: Growth inhibition of human SF268 cells
# M14 = assay: Growth inhibition of human M14 cells
# [11] = read-out: LC50 (the source's name)
smiles,measurement,setting,value
C[n+]1nn(-c2ccc(F)cc2)c2c1C(=O)c1ccccc1C2=O.O=S(=O)([O-])C(F)(F)F,GI50,SK-MEL-28,4.27 µM
same,CC50,SK-MEL-28; [11],45.9 µM
same,GI50,NCI-H522,12.1 µM
same,CC50,NCI-H522; [11],53.8 µM
same,GI50,SK-MEL-2,2.27 µM
same,CC50,SK-MEL-2; [11],33.7 µM
same,GI50,SW-620,6.12 µM
same,CC50,SW-620; [11],47.5 µM
same,GI50,Malme-3M,0.35 µM
same,CC50,Malme-3M; [11],4.75 µM
same,GI50,HCT-116,1.5 µM
same,CC50,HCT-116; [11],8.19 µM
same,GI50,NCI-H226,2.26 µM
same,CC50,NCI-H226; [11],23 µM
same,GI50,SNB-19,1.37 µM
same,LC50,SNB-19,5.88 µM
same,GI50,[1],0.58 µM
same,LC50 (concentration killing 50% of cells),[1],4.94 µM
same,GI50,COLO 205,0.35 µM
same,CC50,COLO 205; [11],3.54 µM
same,Activity,[2],43.38%
same,GI50,[3]; UACC-62,1.55 µM
same,CC50,"[3]; UACC-62, read-out: LC50 (the source's name)",7.67 µM
same,GI50,NCI-H23,0.82 µM
same,CC50,NCI-H23; [11],7.25 µM
same,GI50,[4]; HCT-15,3.72 µM
same,CC50,"[4]; HCT-15, read-out: LC50 (the source's name)",50.9 µM
same,GI50,NCI-H460,0.63 µM
same,CC50,NCI-H460; [11],9 µM
same,GI50,[5]; SF-539,1.83 µM
same,CC50,"[5]; SF-539, read-out: LC50 (the source's name)",8.4 µM
same,GI50,SK-MEL-5,0.17 µM
same,LC50 (lethal concentration 50),SK-MEL-5,0.6 µM
same,GI50,[6]; HCC 2998,1.4 µM
same,CC50,"[6]; HCC 2998, read-out: LC50 (the source's name)",8.22 µM
same,GI50,[7]; HOP-92,10.7 µM
same,CC50,"[7]; HOP-92, read-out: LC50 (the source's name)",> 100 µM
same,GI50,KM12,2.4 µM
same,CC50,KM12; [11],33.5 µM
same,GI50,[8],1.35 µM
same,CC50,[8]; [11],8.17 µM
same,GI50,U-251,7.86 µM
same,LC50,U-251,45.3 µM
same,GI50,[9]; UACC-257,0.6 µM
same,CC50,"[9]; UACC-257, read-out: LC50 (the source's name)",6.93 µM
same,GI50,MDA-MB-435,0.26 µM
same,CC50,MDA-MB-435; [11],2.21 µM
same,GI50,A549,0.67 µM
same,CC50,A549; [11],5.46 µM
same,GI50,HT-29,2.51 µM
same,LC50,HT-29,48 µM
same,GI50,HOP-62,2.4 µM
same,CC50,HOP-62; [11],32.9 µM
same,GI50,NCI-H322M,0.45 µM
same,CC50,NCI-H322M; [11],4.22 µM
same,GI50,[10],3.28 µM
same,CC50,[10]; [11],62 µM
same,GI50,SNB-75,1.94 µM
same,CC50,SNB-75; [11],7.17 µM
same,GI50,SF-268,3.67 µM
same,CC50,SF-268; [11],46 µM
same,GI50,M14,0.34 µM
same,CC50,M14; [11],3.89 µM

# Reference: ChEMBL document CHEMBL3232814, “Synthesis and anticancer structure activity relationship investigation of cationic anthraquinone analogs” (2014)
